Reference: patent publication US4195018A, “3-[(S)-1'-Phenylethylamino]propylaminobleomycin, non-toxic salt thereof, and method for producing same” (Nippon Kayaku Kabushiki Kaisha, priority 1977, dated 1980)
Converted amounts (≈) assume the structure as drawn. “And” between values parts separate entries of the source, which are not always exact repeats. Equal values may be shown once. “Also recorded” adds a separate entry of the source.

Tests used:
[1] = test system: HeLa S3 cell; experiment: Action on cultivated HeLa S3 cell (growth inhibition); format: cell-based; conditions: for ID50: percentage growth inhibition in 72 hours of culture
[2] = test system: Bacillus subtilis PCI; experiment: Antimicrobial potency by the cup method, bleomycin A2 as standard; format: cell-based; conditions: bleomycin A2 standard = 1,000 U/mg
Method: (§1) The antimicrobial potency was assayed by the cup method against Mycobacterium 607 and Bacillus subtilis PCI by using bleomycin A2 as standard (1,000 U/mg).

[3] = test system: rats; experiment: Acute toxicity in intraperitoneal route (LD50) in rats; conditions: rat
[4] = test system: mouse Ehrlich cancer (solid tumor); experiment: Carcinostatic activity to mouse Ehrlich cancer (solid tumor); format: in vivo, ICR strain mice; conditions: for Percentage inhibition: tumor weight on 15th day vs control; for ID50: Ehrlich solid tumor, 10 doses
Method: Each 2×10^6 cells were transplanted subcutaneously into the inguinal region of ICR strain mice (male, 6 weeks old). After 24 hours, each mouse was administered with test preparations in the same manner as described in 1-2 above. On the 15th day after the subcutaneous transplantation, tumors were removed from each mouse and compared the weight with that of tumors developed in the control group, which had received no treatment, to determine the percentage inhibition.

[5] = test system: lung of mice; experiment: Toxicity to the lung of mice (pulmonary fibrosis); format: in vivo, ICR strain mice; conditions: for Grade: Relative value / Incidence: Relative value: Bleomycin complex = 1.0, 5 mg/kg i.p. x 10 days
Method: ICR strain mice (male, 15 weeks old), 12 in number per group, were used. […]. The dose was administered by intraperitoneal injection, once a day, for 10 consecutive days. After administration, the mice were bred for 5 weeks. After observation, the mice were slaughtered and autopsied to determine the extent of pulmonary fibrosis. […].

[6] = test system: mouse squamous cell carcinoma induced by 20-methylcholanthrene; experiment: Inhibitory activity against mouse squamous cell carcinoma induced by 20-methylcholanthrene; format: in vivo, ddy strain mice; conditions: for Mortality: 62.5 mcg/mouse i.p. twice a week for 15 weeks; for Percentage inhibition: inhibition of carcinogenesis vs control, 62.5 mcg/mouse i.p.
Description: An acetone solution of 20-MC was topically applied to the sheared back of ddy strain mice (male, 10 weeks old), twice a week, for 18 weeks. After 5 weeks from the beginning of the 20-MC treatment, 62.5 mcg/mouse of the test preparation was intraperitoneally applied, twice a week, during a period of 15 weeks. Within the first week after completion of the administration of test preparation, the region where 20-MC had been applied was pathologically examined for the incidence of carcinogenesis.

[7] = test system: AH66 ascites hepatoma; experiment: Carcinostatic activity against ascites hepatoma (ascites type) in rats; format: in vivo, Donryu strain rats; conditions: control = 100
Method: Each 1×10^6 AH66 cells were transplanted intraperitoneally into Donryu strain rats. After 24 hours, the test preparation was intraperitoneally administered once a day for 10 consecutive days. During a period of 30 days after the transplantation, the weight of each rat and the number of dead and survival were observed.

[8] = test system: Mycobacterium smegmatis ATCC 607 (Mycobacterium 607); experiment: Antimicrobial potency by the cup method, bleomycin A2 as standard; format: cell-based; conditions: for Antimicrobial potency M. 607: bleomycin A2 standard = 1,000 U/mg; for Antimicrobial potency: product batches of the Examples, bleomycin A2 (copper-free form) = 1,000 u/mg
Method: as §1
[Note: The antimicrobial potency was assayed using Mycobacterium smegmatis ATCC 607 as assay organism and assuming the potency of bleomycin A2 (copper-free form) as 1,000 u/mg. The same applies hereinafter.]

[9] = Solubility (physicochemical properties); conditions: solvents as named in the value
[10] = test system: rats
[11] = test system: dogs
[12] = 3.12 mg/kg x 10 i.p., 30 days observation

Compound	ID50 [1]	Antimicrobial potency B. Sub. [2]	LD50 [3]	Percentage inhibition ([4]; 0.03 mg/kg x 10)	Percentage inhibition ([4]; 0.1 mg/kg x 10)	Percentage inhibition ([4]; 0.3 mg/kg x 10)	Percentage inhibition ([4]; 0.9 mg/kg x 10)	Percentage inhibition ([4]; 2.7 mg/kg x 10)	ID50 [4]	Grade: Relative value [5]	Incidence: Relative value [5]	Mortality [6]	Percentage inhibition [6]	Relative value of average survival days ([7]; 0.19 mg/kg x 10 i.p.)	Relative value of average survival days ([7]; 0.39 mg/kg x 10 i.p.)	Relative value of average survival days ([7]; 0.78 mg/kg x 10 i.p.)	Relative value of average survival days ([7]; 1.56 mg/kg x 10 i.p.)	Relative value of average survival days [7, 12]	Solubility [9]	Antimicrobial potency [8]	also measured
Cc1c(N)nc(C(CC(N)=O)NCC(N)C(N)=O)nc1C(=O)NC(C(=O)NC(C)C(O)C(C)C(=O)NC(C(=O)NCCc1nc(-c2nc(C(=O)NCCCNC(C)c3ccccc3)cs2)cs1)C(C)O)C(OC1OC(CO)C(O)C(O)C1OC1OC(CO)C(O)C(OC(N)=O)C1O)c1c[nH]cn1 [NK631, 3-[(S)-1'-phenylethylamino]propylaminobleomycin]	0.82 µg/mL (≈ 0.556 µM)																				Cell growth inhibition compared with Bleomycin complex ([1]; HeLa S3, 72 hours): twice as strongly as Bleomycin complex
Cc1c(N)nc(C(CC(N)=O)NCC(N)C(N)=O)nc1C(=O)NC(C(=O)NC(C)C(O)C(C)C(=O)NC(C(=O)NCCc1nc(-c2nc(C(=O)NCCCNC(C)c3ccccc3)cs2)cs1)C(C)O)C(OC1OC(CO)C(O)C(O)C1OC1OC(CO)C(O)C(OC(N)=O)C1O)c1cnc[nH]1.O=S(=O)(O)O (mixture of isomers) [RS form, 3-[(R,S)-1'-phenylethylamino]propylaminobleomycin monosulfate (copper-free form), reference compound]	0.80 µg/mL	1400 U/mg	150.6 mg(w)/kg	13	51	51	60	78	0.31 mg/kg/day	0.49	0.63	1/12	47.8	121	149	196	257	298			Antimicrobial potency M. 607 [8]: 7535 U/mg
Cc1c(N)nc([C@H](CC(N)=O)NC[C@H](N)C(N)=O)nc1C(=O)N[C@H](C(=O)N[C@H](C)[C@@H](O)[C@H](C)C(=O)N[C@H](C(=O)NCCc1nc(-c2nc(C(=O)NCCCN[C@@H](C)c3ccccc3)cs2)cs1)[C@@H](C)O)[C@@H](O[C@@H]1O[C@@H](CO)[C@@H](O)[C@H](O)[C@@H]1O[C@H]1O[C@H](CO)[C@@H](O)[C@H](OC(N)=O)[C@@H]1O)c1cnc[nH]1.Cl.Cl [NK631 dihydrochloride (copper-free form)]																			Soluble in water, methanol, acetic acid, DMSO, DMF; also recorded: sparingly soluble in dioxane; also recorded: insoluble in ethanol	7,834 u/mg and 7,820 u/mg and 7,845 u/mg	
CC(=O)O.CC(=O)O.Cc1c(N)nc([C@H](CC(N)=O)NC[C@H](N)C(N)=O)nc1C(=O)N[C@H](C(=O)N[C@H](C)[C@@H](O)[C@H](C)C(=O)N[C@H](C(=O)NCCc1nc(-c2nc(C(=O)NCCCN[C@@H](C)c3ccccc3)cs2)cs1)[C@@H](C)O)[C@@H](O[C@@H]1O[C@@H](CO)[C@@H](O)[C@H](O)[C@@H]1O[C@H]1O[C@H](CO)[C@@H](O)[C@H](OC(N)=O)[C@@H]1O)c1cnc[nH]1																			Soluble in water, methanol, acetic acid, DMSO, DMF; also recorded: sparingly soluble in dioxane; also recorded: insoluble in ethanol	7,620 u/mg	
Cc1c(N)nc([C@H](CC(N)=O)NC[C@H](N)C(N)=O)nc1C(=O)N[C@H](C(=O)N[C@H](C)[C@@H](O)[C@H](C)C(=O)N[C@H](C(=O)NCCc1nc(-c2nc(C(=O)NCCCN[C@@H](C)c3ccccc3)cs2)cs1)[C@@H](C)O)[C@@H](O[C@@H]1O[C@@H](CO)[C@@H](O)[C@H](O)[C@@H]1O[C@H]1O[C@H](CO)[C@@H](O)[C@H](OC(N)=O)[C@@H]1O)c1cnc[nH]1.O=S(=O)(O)O [NK631 monosulfate (copper-free form), 3-[(S)-1'-phenylethylamino]-propylaminobleomycin monosulfate (copper-free form)]		1550 U/mg	155.0 mg(w)/kg	19	24	39	68	84	0.35 mg/kg/day	0.25	0.36	1/12	47.8	116	163	216	269	296	Soluble in water, methanol, acetic acid, DMSO, DMF; also recorded: sparingly soluble in dioxane; also recorded: insoluble in ethanol	7,865 u/mg	Carcinostatic activity, times as high as that of the Bleomycin complex ([4]; relative to bleomycin complex): about 1.4 times; Fibrosis grade reduced to, as compared with RS form ([5]; relative to RS form): about 1/2; Fibrosis incidence reduced to, as compared with RS form ([5]; relative to RS form): about 1/2; Fibrosis grade reduced to, as compared with bleomycin complex ([5]; relative to bleomycin complex): 1/4; Fibrosis incidence reduced to, as compared with bleomycin complex ([5]; relative to bleomycin complex): 1/3; Subacute and chronic toxicity [10]: comparable to Bleomycin complex; Subacute and chronic toxicity ([11]; dogs): comparable to Bleomycin complex; Toxicity to the lung ([11]; subacute and chronic toxicity study, species not stated separately): lower than that of the Bleomycin complex; Antimicrobial potency M. 607 [8]: 7848 U/mg
Cc1c(N)nc([C@H](CC(N)=O)NC[C@H](N)C(N)=O)nc1C(=O)N[C@H](C(=O)N[C@H](C)[C@@H](O)[C@H](C)C(=O)N[C@H](C(=O)NCCc1nc(-c2nc(C(=O)NCCCN[C@@H](C)c3ccccc3)cs2)cs1)[C@@H](C)O)[C@@H](O[C@@H]1O[C@@H](CO)[C@@H](O)[C@H](O)[C@@H]1O[C@H]1O[C@H](CO)[C@@H](O)[C@H](OC(N)=O)[C@@H]1O)c1cnc[nH]1.Cl.Cl.[Cu] [3-[(S)-1'-phenylethylamino]propylaminobleomycin dihydrochloride (copper-containing form)]																			Soluble in water, methanol		
